Measured values as given in patent US20230203081A1, “LINCOSAMIDE ANTIBIOTICS AND USES THEREOF” (President and Fellows of Harvard College, priority 2020, published 2023).
Values after ≈ are worked out from the molar mass of the structure shown.

Assays:
Assay type in all cases: cell-based
E. coli ΔTolC = experiment: microbe, parasite or virus in culture; conditions: Escherichia coli, E. coli ΔTolC
Experimental: (§1) Minimum inhibitory concentrations (MICs) were determined by broth microdilution method or agar dilution method following the Clinical and Laboratory Standards Institute guidelines. Standard bacterial strains were obtained from American Type Culture Collection (ATCC). Other bacterial strains were obtained from hospitals and commercial sources, so noted in Table 11. […] Specialized procedures were employed for streptococcal and anaerobic strains. All other bacterial strains were sub-cultured on blood agar plates (tryptic soy agar with 5% sheep blood, Hardy Diagnostics) and incubated overnight at 35° C. […] Suspensions were further diluted to obtain a final inoculum of 5×10^5 CFU/mL for broth microdilution experiments.

E. faecium Clinical VRE = experiment: MIC (broth microdilution or agar dilution, CLSI); conditions: Enterococcus faecium; E. faecium Clinical VRE; read-out: MIC
Experimental: (§2) Minimum inhibitory concentrations (MICs) were determined by broth microdilution method or agar dilution method following the Clinical and Laboratory Standards Institute guidelines. Standard bacterial strains were obtained from American Type Culture Collection (ATCC). Other bacterial strains were obtained from hospitals and commercial sources, so noted in Table 11. Before the start of the MIC experiment, standard and test compound stock solutions were prepared in dimethyl sulfoxide (DMSO, Aldrich D2650) at a stock concentration of 5,120 μg/mL. The compound concentration range typically employed for each experiment was 128-0.06 μg/mL (2.5% final DMSO concentration). Clindamycin was used as a comparator in all experiments and each experiment was performed in triplicate. Specialized procedures were employed for streptococcal and anaerobic strains. All other bacterial strains were sub-cultured on blood agar plates (tryptic soy agar with 5% sheep blood, Hardy Diagnostics) and incubated overnight at 35° C. Organisms were suspended in cation-adjusted Mueller-Hinton broth (CaMHB, BD 212322) and optical density was adjusted to 0.5 McFarland standard. Suspensions were further diluted to obtain a final inoculum of 5×10^5 CFU/mL for broth microdilution experiments.

S. aureus cErmA = experiment: MIC (broth microdilution or agar dilution, CLSI); conditions: Staphylococcus aureus; S. aureus cErmA; read-out: MIC
Experimental: as §2

E. coli ATCC 25922 = experiment: MIC (broth microdilution or agar dilution, CLSI); conditions: Escherichia coli, ATCC25922; E. coli ATCC 25922; read-out: MIC
Experimental: as §1

E. coli LptD = experiment: MIC (broth microdilution or agar dilution, CLSI); conditions: Escherichia coli, E. coli LptD; read-out: MIC
Experimental: as §1

E. faecalis ATCC 29212 = experiment: MIC (broth microdilution or agar dilution, CLSI); conditions: Enterococcus faecalis, ATCC29212, E. faecalis ATCC 29212; read-out: MIC
Experimental: as §1

K. oxytoca Clinical = experiment: MIC (broth microdilution or agar dilution, CLSI); conditions: Klebsiella oxytoca; K. oxytoca Clinical; read-out: MIC
Experimental: as §1

S. aureus ATCC 29213 = experiment: MIC (broth microdilution or agar dilution, CLSI); conditions: Staphylococcus aureus, ATCC29213, S. aureus ATCC 29213; read-out: MIC
Experimental: as §1

S. pneumoniae ATCC 49619 = experiment: MIC (broth microdilution or agar dilution, CLSI); conditions: Streptococcus pneumoniae, ATCC49619, S. pneumoniae ATCC 49619; read-out: MIC
Experimental: as §1

S. pyogenes ATCC 19615 = experiment: MIC (broth microdilution or agar dilution, CLSI); conditions: Streptococcus pyogenes, ATCC19615, S. pyogenes ATCC 19615; read-out: MIC
Experimental: as §1

[1] = tested on: broad panel of different clinical isolates; experiment: microbe, parasite or virus in culture; conditions: Staphylococcus aureus, norA
Experimental: as §1

Row | SMILES | MIC (E. coli ΔTolC) [µg/mL] | MIC (E. faecium Clinical VRE) [µg/mL] | MIC (S. aureus cErmA) [µg/mL] | MIC (E. coli ATCC 25922) [µg/mL] | MIC (E. coli LptD) [µg/mL] | MIC (E. faecalis ATCC 29212) [µg/mL] | MIC (K. oxytoca Clinical) [µg/mL] | MIC (S. aureus ATCC 29213) [µg/mL] | MIC (S. pneumoniae ATCC 49619) [µg/mL] | MIC (S. pyogenes ATCC 19615) [µg/mL] | MIC ([1]; S. aureus HAV#051, mecA, spcl, ermA, aad1, aac6′-aph2″) [µg/mL] | MIC ([1]; S. aureus HAV#052, mecA, fosB, blaZ) [µg/mL] | MIC ([1]; S. aureus HAV#053 mecA, fosB) [µg/mL] | MIC ([1]; S. aureus HAV#054, mecA, spcl, aad1, fosB, ermA, aac6′-aph2″, blaZ) [µg/mL]
1 | CS[C@H]1O[C@H]([C@H](NC(=O)[C@H]2NC[C@@H]3C[C@H](CC(C)C)CCO[C@H]32)[C@H](C)Sc2ccc(CN3CCCCC3)cc2)[C@H](O)[C@H](O)[C@H]1O [FSA-09-05-077, (4S,5aS,8S,8aR)-4-Isobutyl-N-((1S,2S)-2-((4-(piperidin-1-ylmethyl)phenyl)thio)-1-((2R,3R,4S,5R,6R)-3,4,5-trihydroxy-6-(methylthio)tetrahydro-2H-pyran-2-yl)propyl)octahydro-2H-oxepino[2,3-c]pyrrole-8-carboxamide] | 4 (≈ 6.01 µM) | 1 (≈ 1.5 µM) | 4 (≈ 6.01 µM) | 16 (≈ 24 µM) | 1 (≈ 1.5 µM) | 1 (≈ 1.5 µM) | 1 (≈ 1.5 µM) | 2 (≈ 3 µM) | 0.25 (≈ 0.375 µM) | 0.125 (≈ 0.188 µM) |  |  |  | 
2 | NCC[C@H](O)C(=O)N[C@@H]1C[C@H](N)[C@@H](O[C@H]2O[C@H](CN)[C@@H](O)[C@H](O)[C@H]2O)[C@H](O)[C@H]1O[C@H]1O[C@H](CO)[C@@H](O)[C@H](N)[C@H]1O [Amikacin] |  |  |  |  |  |  |  |  |  |  | 4 (≈ 6.83 µM) | 4 (≈ 6.83 µM) | 4 (≈ 6.83 µM) | 64 (≈ 109 µM)
3 | CS[C@H]1O[C@H]([C@H](NC(=O)[C@H]2NC[C@@H]3C[C@H](CC(C)C)CCO[C@H]32)[C@H](C)Sc2nnc(N)s2)[C@H](O)[C@H](O)[C@H]1O [FSA-09-04-094, (4S,5aS,8S,8aR)-N-((1S,2S)-2-((5-Amino-1,3,4-thiadiazol-2-yl)thio)-1-((2R,3R,4S,5R,6R)-3,4,5-trihydroxy-6-(methylthio)tetrahydro-2H-pyran-2-yl)propyl)-4-isobutyloctahydro-2H-oxepino[2,3-c]pyrrole-8-carboxamide] | 32 (≈ 54.1 µM) | 128 (≈ 216 µM) | 128 (≈ 216 µM) | > 128 | 64 (≈ 108 µM) | 2 (≈ 3.38 µM) | > 128 | 4 (≈ 6.76 µM) | 0.5 (≈ 0.845 µM) | 1 (≈ 1.69 µM) |  |  |  | 
4 | CSC1O[C@H]([C@H](NC(=O)[C@H]2NC[C@@H]3C[C@H](CCCCl)CCO[C@H]32)[C@H](C)Cl)C(O)C(O)[C@H]1O (stereo partly drawn) [FSA-12-03-042] | 0.5 (≈ 0.97 µM) | 4 (≈ 7.76 µM) | 16 (≈ 31 µM) | 8 (≈ 15.5 µM) | 2 (≈ 3.88 µM) | 0.125 (≈ 0.242 µM) | 8 (≈ 15.5 µM) | 0.125 (≈ 0.242 µM) | 0.06 (≈ 0.116 µM) | 0.06 (≈ 0.116 µM) |  |  |  | 
5 | CS[C@H]1O[C@H]([C@H](NC(=O)[C@H]2NC[C@@H]3C[C@H](CC(C)C)CCO[C@H]32)[C@H](C)Sc2nnc(N3CCNCC3)s2)[C@H](O)[C@H](O)[C@H]1O [FSA-09-05-011, (4S,5aS,8S,8aR)-4-Isobutyl-N-((1S,2S)-2-((5-(piperazin-1-yl)-1,3,4-thiadiazol-2-yl)thio)-1-((2R,3R,4S,5R,6R)-3,4,5-trihydroxy-6-(methylthio)tetrahydro-2H-pyran-2-yl)propyl)octahydro-2H-oxepino[2,3-c]pyrrole-8-carboxamide] | 2 (≈ 3.03 µM) | 32 (≈ 48.4 µM) | 64 (≈ 96.8 µM) | 32 (≈ 48.4 µM) | 8 (≈ 12.1 µM) | 2 (≈ 3.03 µM) | 64 (≈ 96.8 µM) | 4 (≈ 6.05 µM) | 1 (≈ 1.51 µM) | 1 (≈ 1.51 µM) |  |  |  | 
6 | CS[C@H]1O[C@H]([C@H](NC(=O)[C@H]2NC[C@@H]3C[C@H](CC(C)C)CCO[C@H]32)[C@H](C)Sc2ccc(CO)cc2)[C@H](O)[C@H](O)[C@H]1O [FSA-09-05-069, (4S,5aS,8S,8aR)-N-((1S,2S)-2-((4-(Hydroxymethyl)phenyl)thio)-1-((2R,3R,4S,5R,6R)-3,4,5-trihydroxy-6-(methylthio)tetrahydro-2H-pyran-2-yl)propyl)-4-isobutyloctahydro-2H-oxepino[2,3-c]pyrrole-8-carboxamide] | 4 (≈ 6.68 µM) | 16 (≈ 26.7 µM) | 64 (≈ 107 µM) | 128 (≈ 214 µM) | 16 (≈ 26.7 µM) | 1 (≈ 1.67 µM) | 128 (≈ 214 µM) | 1 (≈ 1.67 µM) | 0.125 (≈ 0.209 µM) | 0.25 (≈ 0.417 µM) |  |  |  | 
7 | CS[C@H]1O[C@H]([C@H](NC(=O)[C@H]2NC[C@@H]3C[C@H](CC(C)C)CCO[C@H]32)C(C)C(F)(F)F)[C@H](O)[C@H](O)[C@H]1O (mixture of isomers) [FSA-09-04-081, (4S,5aS,8S,8aR)-4-Isobutyl-N-((1R)-3,3,3-trifluoro-2-methyl-1-((2R,3R,4S,5R,6R)-3,4,5-trihydroxy-6-(methylthio)tetrahydro-2H-pyran-2-yl)propyl)octahydro-2H-oxepino[2,3-c]pyrrole-8-carboxamide] | 2 (≈ 3.78 µM) | 0.25 (≈ 0.473 µM) | 8 (≈ 15.1 µM) | 32 (≈ 60.5 µM) | 2 (≈ 3.78 µM) | 0.125 (≈ 0.236 µM) | 32 (≈ 60.5 µM) | 0.125 (≈ 0.236 µM) | 0.125 (≈ 0.236 µM) | 0.125 (≈ 0.236 µM) |  |  |  | 
8 | CS[C@H]1O[C@H]([C@H](NC(=O)[C@H]2NC[C@@H]3C[C@H](CC(C)C)CCO[C@H]32)[C@H](C)Sc2ccc(CN3CCOCC3)cc2)[C@H](O)[C@H](O)[C@H]1O [FSA-09-05-68, (4S,5aS,8S,8aR)-4-Isobutyl-N-((1S,2S)-2-((4-(morpholinomethyl)phenyl)thio)-1-((2R,3R,4S,5R,6R)-3,4,5-trihydroxy-6-(methylthio)tetrahydro-2H-pyran-2-yl)propyl)octahydro-2H-oxepino[2,3-c]pyrrole-8-carboxamide] | 2 (≈ 2.99 µM) | 4 (≈ 5.99 µM) | 8 (≈ 12 µM) | 32 (≈ 47.9 µM) | 2 (≈ 2.99 µM) | 1 (≈ 1.5 µM) | 32 (≈ 47.9 µM) | 2 (≈ 2.99 µM) | 0.125 (≈ 0.187 µM) | 0.25 (≈ 0.374 µM) |  |  |  | 
9 | CSC1O[C@H]([C@H](NC(=O)[C@H]2NC[C@@H]3C[C@H](CCCF)CCO[C@H]32)[C@H](C)Cl)C(O)C(O)[C@H]1O (stereo partly drawn) [FSA-12-03-035] | 4 (≈ 8.02 µM) | 4 (≈ 8.02 µM) | 8 (≈ 16 µM) | 8 (≈ 16 µM) | 4 (≈ 8.02 µM) | 0.25 (≈ 0.501 µM) | 4 (≈ 8.02 µM) | 0.125 (≈ 0.25 µM) | 0.06 (≈ 0.12 µM) | 0.06 (≈ 0.12 µM) |  |  |  | 
10 | CS[C@H]1O[C@H]([C@H](NC(=O)[C@H]2NC[C@@H]3C[C@H](CC(C)C)CCO[C@H]32)[C@H](C)Sc2ccc(-c3cccnc3)cc2)[C@H](O)[C@H](O)[C@H]1O [FSA-09-05-074, (4S,5aS,8S,8aR)-4-Isobutyl-N-((1S,2S)-2-((4-(pyridin-3-yl)phenyl)thio)-1-((2R,3R,4S,5R,6R)-3,4,5-trihydroxy-6-(methylthio)tetrahydro-2H-pyran-2-yl)propyl)octahydro-2H-oxepino[2,3-c]pyrrole-8-carboxamide] | 4 (≈ 6.19 µM) | 2 (≈ 3.1 µM) | 2 (≈ 3.1 µM) | 32 (≈ 49.5 µM) | 4 (≈ 6.19 µM) | 0.5 (≈ 0.774 µM) | 32 (≈ 49.5 µM) | 1 (≈ 1.55 µM) | 0.125 (≈ 0.194 µM) | 0.25 (≈ 0.387 µM) |  |  |  | 
11 | CSC1O[C@H]([C@H](NC(=O)[C@H]2NC[C@@H]3C[C@H](CCC(F)F)CCO[C@H]32)[C@H](C)Cl)C(O)C(O)[C@H]1O (stereo partly drawn) [FSA-12-03-055] | 1 (≈ 1.93 µM) | 8 (≈ 15.5 µM) | 16 (≈ 30.9 µM) | 16 (≈ 30.9 µM) | 4 (≈ 7.74 µM) | 0.25 (≈ 0.484 µM) | 16 (≈ 30.9 µM) | 0.125 (≈ 0.242 µM) | 0.06 (≈ 0.116 µM) | 0.06 (≈ 0.116 µM) |  |  |  | 
12 | CCCC[C@@H]1CCO[C@@H]2[C@H](CN[C@@H]2C(=O)N[C@H]([C@H](C)Cl)[C@H]2OC(SC)[C@H](O)C(O)C2O)C1 (stereo partly drawn) [FSA-12-03-029] | 4 (≈ 8.08 µM) | 8 (≈ 16.2 µM) | 8 (≈ 16.2 µM) | 16 (≈ 32.3 µM) | 4 (≈ 8.08 µM) | 0.25 (≈ 0.505 µM) | 32 (≈ 64.6 µM) | 0.25 (≈ 0.505 µM) | 0.06 (≈ 0.121 µM) | 0.06 (≈ 0.121 µM) |  |  |  | 
